Data taken from patent US20060111368A1, “Phosphodiesterase inhibitor” (Kyowa Hakko Kogyo Co., Ltd., priority 2002, published 2006).
Where a name gives a salt, the structure may show the parent alone.

Target: T1, PDE10A (Homo sapiens, UniProt Q9Y233)
T1 construct: made in house; host or cells: Sf9 insect cells (baculovirus, pVL1393)
Assay: Activity of inhibiting PDE10A activity ([3H]cAMP decomposition inhibiting test)
Assay type: biochemical
Details: substrate [3H]cAMP 0.2 μmol/L
Method: Activity of Inhibiting PDE10A Activity (^3H]cAMP Decomposition Inhibiting Test)
PCR was performed using DNAs having base sequences described in SEQ ID NO. 1 and SEQ ID NO. 2 as primers and human kidney cDNA as a template to prepare a plasmid containing amplified fragments. The plasmid was cleaved with restriction endonucleases Pst I and Xba I to obtain a Pst I-Xba I fragment of 0.7 kb.
Meanwhile, Est clone (Cosmo Bio, Tokyo) of GenBank, ACCESSION WO 4835 was cleaved with restriction endonucleases Kpn I and Pst I to obtain a Kpn I-Pst I fragment of 1.5 kb.
The resulting Pst I-Xba I fragment of 0.7 kb and Kpn I-Pst I fragment of 1.5 kb were subcloned in a Kpn I-Xba I site of pBluescript II KS(−) (STRATAGENE, La Jolla, Calif., USA),to construct a plasmid having a cDNA fragment completely including a catalyst region of PDE10A. Subsequently, the plasmid was cleaved with restriction endonucleases Kpn I and Not I to obtain a Kpn I-Not I fragment of 2.2 kb.
The resulting Kpn I-Not I fragment of 2.2 kb and a linker having a BamH I-Kpn I cleavage surface prepared by synthetic DNA having base sequences described in SEQ ID NOS. 3 and 4 were subcloned in a BamH I-Not I site of pVL1393 (PharMingen, San Diego, Calif., USA) to obtain a plasmid for preparation of Baculovirus. The plasmid contains a DNA encoding a peptide in which methionine, FLAG tag and a peptide having a 64th to 779th amino acid sequence of PDE10A [GenBank, ACCESSION NP 006652: Gene, vol. 234, p. 109 (1999), J. Biol. Chem., vol. 274, p. 18438 (1999)] are bound in the order.
The above gene recombinational manipulation was performed according to the method described in Molecular Cloning, 2nd edition, Cold Spring Harbor Laboratory Press, New York (1989).
The expression of PDE10A was conducted according to the Baculovirus expression vector system manual (PharMingen) using insect cells. As insect cells, Sf9 cells (Asahi Technoglass, Tokyo) were used. Sf9 cells were infected with a supernatant (co-transfection sup) containing PDE10A expression virus prepared according to the manual, and cultured at 27° C. for 4 days. The cells were recovered, washed with a phosphate-buffered saline (PBS), and then suspended in an extraction solution [20 mmol/L Tris-acetate (pH 7.5), 2 mmol/L MgCl2, 1 mmol/L dithiothreitol, 1 mmol/L ethylenediaminetetraacetic acid (EDTA), 0.25 mol/L sucrose, 250 unit/mL aprotinin, 40 μg/mL phenylmethylsulfonyl fluoride, and 1 μg/mL pepstatin A]. The cells were disrupted in ice with the maximum output under conditions of 5 seconds and five times using an ultrasonic disruption machine (TOMY model UR-200R, TOMY, Tokyo). A soluble fraction was obtained by centrifugation under 10,000 rpm of the fraction at 4° C. for 30 minutes, and the resulting soluble fraction was used for measuring the PDE activity.
The PDE activity was measured according to the method described in Methods Enzymol., vol. 159, p. 457 (1988).
Using [^3H]cAMP as a substrate, an enzyme reaction was conducted in a reaction solution containing 300 μL of 50 mmol/L N,N-bis (2-hydroxyethyl)-2-aminoethanesulfonic acid (pH 7.2), 1 mmol/L MgCl2 and 0.1 mmol/L ethylene glycol-bis (β-aminoethyl ether)-N,N,N′,N′-tetraacetic acid: EGTA). The concentration of the substrate was 0.2 μmol/L. To 95 μL of an enzyme dilute solution were added 5 μL of a test compound (DMSO solution) and 200 μL of a substrate solution. The mixture was incubated at 30° C. for 20 minutes, and then HCl was added to stop the reaction. The reaction product (5′-AMP) was converted to adenosine using 5′-nucleotidase, and separated the unreacted product from the reactant by DEAE-Sephadex A-25 column (Amersham Pharmacia Biotech, Uppsala, Sweden). The elute was moved to scintillation vials, 6 mL of Ultima Gold (Packard Instrument, Meriden, Conn., USA) was added, and the radioactivity was measured for 2 minutes using a liquid scintillation counter (Beckman LS6500, Beckman, Tokyo),. […]

T1 sequence (Q9Y233 340-1055): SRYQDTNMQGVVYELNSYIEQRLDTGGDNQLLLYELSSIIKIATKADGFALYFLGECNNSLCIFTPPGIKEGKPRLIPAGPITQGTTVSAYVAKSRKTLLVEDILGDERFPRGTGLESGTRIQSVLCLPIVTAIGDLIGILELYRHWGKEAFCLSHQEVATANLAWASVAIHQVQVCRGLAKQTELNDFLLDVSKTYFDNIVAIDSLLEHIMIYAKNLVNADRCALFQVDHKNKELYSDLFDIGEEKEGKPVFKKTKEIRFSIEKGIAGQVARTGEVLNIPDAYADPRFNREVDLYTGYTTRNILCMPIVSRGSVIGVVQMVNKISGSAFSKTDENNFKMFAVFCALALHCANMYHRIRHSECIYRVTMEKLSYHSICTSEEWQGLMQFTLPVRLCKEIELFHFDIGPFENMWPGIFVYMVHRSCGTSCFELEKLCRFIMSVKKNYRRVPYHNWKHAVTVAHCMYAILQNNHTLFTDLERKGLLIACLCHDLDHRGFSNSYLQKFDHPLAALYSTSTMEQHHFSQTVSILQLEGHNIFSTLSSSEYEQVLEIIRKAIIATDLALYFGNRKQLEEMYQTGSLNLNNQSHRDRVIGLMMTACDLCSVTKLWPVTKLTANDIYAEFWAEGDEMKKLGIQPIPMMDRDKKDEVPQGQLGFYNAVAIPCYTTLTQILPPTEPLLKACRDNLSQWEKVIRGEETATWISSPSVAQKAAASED

- inhibition at 1 µM (Test compound concentration 1 μmol/L, read-out: [3H] cAMP decomposition inhibition rate (%)): 96%
- IC50 (read-out: IC50 (concentration at which to inhibit [3H]cAMP decomposition by 50%)): 68 nM
Compound: Cc1c(-c2ccc(-c3ccccc3CN3CCOCC3)cc2)nc2ccc(F)cc2c1CO [Compound 12, 6-Fluoro-4-hydroxymethyl-3-methyl-2-(2′-morpholinomethylbiphenyl-4-yl)quinoline dihydrochloride]
